Assay results: patent US20100249132A1, “IMIDAZOLE DERIVATIVES” (MERCK PATENT GESELLSCHAFT MIT BESCHRANKTER HAFTUNG, priority 2007, published 2010)

Biological target: T1, recombinant autotaxin (Homo sapiens, UniProt Q13822)
T1 construct: made in house; host or cells: Hi5 insect cells (baculovirus)
Assay: Autotaxin test (enzyme test), Amplex Red fluorescence
Format: biochemical
Settings: substrate LPC 75 μM, Amplex Red detection, read-out: IC50 (autotaxin inhibition, enzyme test)
Description: Autotaxin Inhibition (Enzyme Test)
Autotaxin Test (Enzyme Test)
The autotaxin activity is measured indirectly using Amplex Red reagent. Amplex Red is measured here as fluorogenic indicator for the H2O2 formed. In detail, autotaxin converts the substrate lysophosphatidylcholine (LPC) into phosphocholine and lysophosphatidylic acid (LPA). After this reaction, the phosphocholine is reacted with alkaline phosphatase to give inorganic phosphate and choline. In the next step, choline is oxidised by choline oxidase to give betaine, with formation of H2O2. H2O2 reacts with Amplex Red reagent in the presence of peroxidase (horseradish peroxidase) in a 1:1 stoichiometry and forms the highly fluorescent resorufin. The fluorescence is measured in a reaction-dependent kinetic mode in order that fluorescent signals from possible other fluorescent substances which are not involved in the reaction can be corrected out.
1.5 μl of a standard solution or of the test substances (substances with the name A(n)) in individual concentrations dissolved in 20 mM Hepes pH 7.2 with a maximum of 7.7% of DMSO are pre-incubated together with 10 μl (16 ng) of highly purified recombinant autotaxin in a black microtitre plate provided with 384 wells at 22° C. for 30 min. The reaction is then initiated by addition of 5 μl of L-α-lysophosphatidylcholine (LPC), where the final concentration of LPC is 75 μM. The mixture is incubated at 37° C. for 90 min. After the incubation, Amplex Red reagent, peroxidase (horseradish peroxidase) and choline oxidase is added, and the fluorescence is immediately measured at 612 nm with excitation of 485 nm in a “Tecan Ultra multimode” reader. The activity of autotaxin is calculated indirectly via detection of the H2O2 formed. • Material: • Microtitre plate: PS microplate, 384 wells, small volume, black Corning, Cat #3677 • Protein: recombinant autotaxin (Baculovirale Hi5 Expression) • Substrate: L-α-lysophosphatidylcholine (chicken egg)); Avanti Polar Lipids #830071 P • Standard: C14 LPA, Avanti Polar Lipids, Cat #857120P • Detection reagent: Amplex Red reagent; Invitrogen #A12222; dissolved in 1.923 ml of DMSO peroxidase type VI-A (horseradish) from Sigma #P6782; dissolved in 7.45 ml of test buffer, choline oxidase; Sigma #C5896; dissolved in 2.47 ml of test buffer • Detection reagent mix: 1:100 dilution of Amplex Red reagent in test buffer • Test buffer: 200 mM Tris HCl, Merck, Cat #1.08219, pH 7.9, 0.1% of BSA, lipid-free, Roche Cat #775835

Row | Molecule | IC50 [µM]
1 | 5-[3-(4-Butylphenyl)ureido]-2-(5-cyclopropyl-carbamoylfuran-2-ylmethyl)-1H-imidazole-4-carboxamide [Compound A89] | > 10
2 | CC(C)c1ccc(NC(=O)Nc2[nH]c(Cc3ccc(OCC(=O)O)cc3)nc2C(N)=O)cc1 [Compound A1, (4-{4-carbamoyl-5-[3-(4-isopropylphenyl)ureido]-1H-imidazol-2-ylmethyl}phenoxy)acetic acid] | 1 to 10
3 | CC(C)c1ccc(NC(=O)Nc2[nH]c(Cc3ccc(C(=O)O)cc3)nc2C(N)=O)cc1 [Compound A2, 4-{4-Carbamoyl-5-[3-(4-isopropylphenyl)ureido]-1H-imidazol-2-ylmethyl}benzoic acid] | 1 to 10
4 | CCCCc1ccc(NC(=O)Nc2[nH]c(Cc3ccc(C(=O)O)cc3)nc2C(N)=O)cc1 [Compound A3, 4-{5-[3-(4-Butylphenyl)ureido]-4-carbamoyl-1H-imidazol-2-ylmethyl}benzoic acid] | > 10
5 | CCCCCCNC(=O)Nc1[nH]c(Cc2ccc(C(=O)O)cc2)nc1C(N)=O [Compound A4, 4-[4-Carbamoyl-5-(3-hexylureido)-1H-imidazol-2-ylmethyl]benzoic acid] | > 10
6 | Cc1ccc(NC(=O)Nc2[nH]c(Cc3ccc(C(=O)O)cc3)nc2C(N)=O)cc1 [Compound A5, 4-[4-Carbamoyl-5-(3-p-tolylureido)-1H-imidazol 2-ylmethyl]benzoic acid] | > 10
7 | NC(=O)c1nc(Cc2ccc(C(=O)O)cc2)[nH]c1NC(=O)Nc1ccc(Cl)cc1 [Compound A6, 4-{4-Carbamoyl-5-[3-(4-chlorophenyl)ureido]-1H imidazol-2-ylmethyl}benzoic acid] | 1 to 10
8 | CCc1ccc(NC(=O)Nc2[nH]c(Cc3ccc(C(=O)O)cc3)nc2C(N)=O)cc1 [Compound A7, 4-{4-Carbamoyl-5-[3-(4-ethylphenyl)ureido]-1H imidazol-2-ylmethyl}benzoic acid] | 1 to 10
9 | Cc1c(Cl)cccc1NC(=O)Nc1[nH]c(Cc2ccc(C(=O)O)cc2)nc1C(N)=O [Compound A8, 4-{4-Carbamoyl-5-[3-(3-chloro-2-methylphenyl)-ureido]-1H-imidazol-2-ylmethyl}benzoic acid] | 1 to 10
10 | CCCCOc1ccc(NC(=O)Nc2[nH]c(Cc3ccc(C(=O)O)cc3)nc2C(N)=O)cc1 [Compound A9, 4-{5-[3-(4-Butoxyphenyl)ureido]-4-carbamoyl-1H-imidazol-2-ylmethyl}benzoic acid] | 1 to 10
11 | NC(=O)c1nc(Cc2ccc(C(=O)O)o2)[nH]c1NC(=O)Nc1ccc(C(F)(F)F)cc1 [Compound A10, 5-{4-Carbamoyl-5-[3-(4-trifluoromethylphenyl)-ureido]-1H-imidazol-2-ylmethyl}furan-2-carboxylic acid] | 1 to 10
12 | CCc1ccc(NC(=O)Nc2[nH]c(Cc3ccc(C(=O)O)o3)nc2C(N)=O)cc1 [Compound A11, 5-{4-Carbamoyl-5-[3-(4-ethylphenyl)ureido]-1H-imidazol-2-ylmethyl}furan-2-carboxylic acid] | 1 to 10
13 | CC(C)c1ccc(NC(=O)Nc2[nH]c(Cc3ccc(C(=O)O)o3)nc2C(N)=O)cc1 [Compound A12, 5-{4-Carbamoyl-5-[3-(4-isopropylphenyl)ureido]-1H-imidazol-2-ylmethyl}furan-2-carboxylic acid] | 1 to 10
14 | Cc1c(Cl)cccc1NC(=O)Nc1[nH]c(Cc2ccc(C(=O)O)o2)nc1C(N)=O [Compound A13, 5-{4-Carbamoyl-5-[3-(3-chloro-2-methylphenyl)-ureido]-1H-imidazol-2-ylmethyl}furan-2-carboxylic acid] | > 10
15 | Cc1ccc(NC(=O)Nc2[nH]c(Cc3ccc(C(=O)O)o3)nc2C(N)=O)c(C)c1 [Compound A14, 5-{4-Carbamoyl-5-[3-(2,4-dimethylphenyl)-ureido]-1H-imidazol-2-ylmethyl}furan-2-carboxylic acid] | > 10
16 | NC(=O)c1nc(Cc2ccc(C(=O)O)cc2)[nH]c1NC(=O)Nc1ccc(C(F)(F)F)cc1 [Compound A15, 4-{4-Carbamoyl-5-[3-(4-tritluoromethylphenyl)-ureido]-1H-imidazol-2-ylmethyl}benzoic acid] | 1 to 10
17 | Cc1cccc(C)c1NC(=O)Nc1[nH]c(Cc2ccc(C(=O)O)cc2)nc1C(N)=O [Compound A16, 4-{4-Carbamoyl-5-[3-(2,6-dimethylphenyl)-ureido]-1H-imidazol-2-ylmethyl}benzoic acid] | > 10
18 | NC(=O)c1nc(Cc2ccc(C(=O)O)cc2)[nH]c1NC(=O)Nc1cc(C(F)(F)F)ccc1F [Compound A17, 4-{4-Carbamoyl-5-[3-(2-tluoro-5-trifluoromethyl-phenyl)ureido]-1H-imidazol-2-ylmethyl}benzoic acid] | > 10
19 | NC(=O)c1nc(-c2ccc(C(=O)O)cc2)[nH]c1NC(=O)Nc1ccc(C(F)(F)F)cc1 [Compound A18, 4-{4-Carbamoyl-5-[3-(4-trifluoromethylphenyl)-ureido]-1H-imidazol-2-yl}benzoic acid] | > 10
20 | CCc1ccc(NC(=O)Nc2[nH]c(-c3ccc(C(=O)O)cc3)nc2C(N)=O)cc1 [Compound A19, 4-{4-Carbamoyl-5-[3-(4-ethylphenyl)ureido]-1H-imidazol-2-yl}benzoic acid] | > 10
21 | NC(=O)c1nc(-c2ccc(CC(=O)O)cc2)[nH]c1NC(=O)Nc1ccc(C(F)(F)F)cc1 [Compound A20, (4-{4-Carbamoyl-5-[3-(4-trifluoromethylphenyl)-ureido]-1H-imidazol-2-yl}phenyl)acetic acid] | > 10
22 | NC(=O)c1nc(-c2ccc(CC(=O)O)cc2)[nH]c1NC(=O)Nc1cccc(Cl)c1 [Compound A21, (4-{4-Carbamoyl-5-[3-(3-chlorophenyl)ureido]-1H-imidazol-2-yl}phenyl)acetic acid] | > 10
23 | NC(=O)c1nc(-c2ccc(CC(=O)O)cc2)[nH]c1NC(=O)Nc1ccc(Cl)cc1 [Compound A22, (4-{4-Carbamoyl-5-[3-(4-chlorophenyl)ureido]-1H-imidazol-2-yl}phenyl)acetic acid] | > 10
24 | CC(C)c1ccc(NC(=O)Nc2[nH]c(-c3ccc(CC(=O)O)cc3)nc2C(N)=O)cc1 [Compound A23, (4-{4-Carbamoyl-5-[3-(4-isopropylphenyl)ureido]-1H-imidazol-2-yl}phenyl)acetic acid] | > 10
25 | Cc1ccc(NC(=O)Nc2[nH]c(-c3ccc(CC(=O)O)cc3)nc2C(N)=O)c(C)c1 [Compound A24, (4-{4-Carbamoyl-5-[3-(2,4-dimethylphenyl)-ureido]-1H-imidazol-2-yl}phenyl)acetic acid] | > 10
26 | Cc1cc(C)cc(NC(=O)Nc2[nH]c(-c3ccc(CC(=O)O)cc3)nc2C(N)=O)c1 [Compound A25, (4-{4-Carbamoyl-5-[3-(3,5-dimethylphenyl)-ureido]-1H-imidazol-2-yl}phenyl)acetic acid] | > 10
27 | Cc1cccc(C)c1NC(=O)Nc1[nH]c(Cc2ccc(C(=O)O)o2)nc1C(N)=O [Compound A26, 5-{4-Carbamoyl-5-[3-(2,6-dimethylphenyl)-ureido]-1H-imidazol-2-ylmethyl}furan-2-carboxylic acid] | > 10
28 | NC(=O)c1nc(Cc2ccc(C(=O)O)o2)[nH]c1NC(=O)NCCc1ccccc1 [Compound A27, 5-[4-Carbamoyl-5-(3-phenethylureido)-1H-imidazol-2-ylmethyl]furan-2-carboxylic acid] | 1 to 10
